Legend:
[1] = tested on: temper, rage and outburst behavior disorder (TROBD); test: Example 1: lisinopril regimen in a patient suffering from TROBD; assay type: in vivo, human; conditions: for relief of TROBD by prior treatments: prior treatments of the same patient, before lisinopril
Text: The TROBD was an endogenous behavioral disorder. […] When confined to their room, the patient would act out with banging and stomping. Episodes were accompanied by physiological changes including dilation of pupils, expressionless face and a rise in blood pressure.
With lisinopril medication as noted above over a period of about four weeks, definite changes in behavior were evident. […] At home, they retreated from a situation triggering the event to their room, where they remained quiet.
Each of the three episodes occurred at school. In one episode, the patient was working on a computer and refused to give up their work station when their allotted time had been used up. […] A second episode was triggered when the patient was asked to make up a class they had missed. They refused to go to the class but voluntarily moved themself to a “cooling room” to allow their temper to subside. They again, when so instructed, walked to the school office without being physically coerced. In a third episode, the patient was asked to leave the classroom because they would not stop talking during a quiet time. In this case, there was a limited degree of acting out in that, while sitting in a chair, they kicked a desk which was knocked over. They then allowed themself to be escorted by police officers to the school office without being physically coerced. In the office, they kicked another desk and was taken by ambulance to a children's hospital for evaluation.

central nervous system = conditions: of the persons treated; cited from earlier work
[2] = under treatment, approximately two and one-half months

## C[C@H](N)Cc1ccccc1 [dextroamphetamine]
[1]
  relief of TROBD by prior treatments: ineffective to provide adequate relief

## CCOC(=O)[C@H](CCc1ccccc1)N[C@@H](C)C(=O)N1CCC[C@H]1C(=O)O [enalapril]
Central nervous system
  incidence of dream abnormality: less than one

## CCC(=O)O[C@@H](O[P@](=O)(CCCCc1ccccc1)CC(=O)N1C[C@H](C2CCCCC2)C[C@H]1C(=O)O)C(C)C [fosinopril]
Central nervous system
  incidence of behavior change: less than one
  incidence of memory disturbance: less than one
  incidence of mood change: less than one

## NCCCC[C@H](N[C@@H](CCc1ccccc1)C(=O)O)C(=O)N1CCC[C@H]1C(=O)O [lisinopril]
[1]; lisinopril 10 mg per day oral, about four weeks
  violent outburst during episodes: without violent outburst
[1]; lisinopril 10 mg per day oral, about four weeks, prior to medication approximately twenty minutes per episode
  duration of episodes of rage and/or violent behavior: five to ten
[1]; lisinopril 10 mg per day oral, about four weeks, prior to medication two to four episodes per week
  frequency of episodes: approximately one
[1]; [2]
  blood pressure during the three most marked temper-related episodes: 128/64
  degree of violence in episodes compared to behavior prior to treatment: significantly reduced
  dilation of pupils: no noticeable dilation of pupils

## COC(=O)C(c1ccccc1)C1CCCCN1 (stereo not shown) [methylphenidate]
[1]
  relief of TROBD by prior treatments: ineffective to provide adequate relief

## CCOC(=O)[C@H](CCc1ccccc1)N[C@@H](C)C(=O)N1Cc2cc(OC)c(OC)cc2C[C@H]1C(=O)O [moexipril]
Central nervous system
  incidence of mood change: less than one

Reference: US7276492B2, “Use of ACE inhibitors for treatment of patients suffering from behavioral disorders” (priority 2000, dated 2007)
